Data from patent publication US12077503B2, “Substituted cyclic amides and their use as herbicides” (FMC CORPORATION, priority 2015, dated 2024).

How the values were obtained:
Assay type in all cases: in vivo
corn (Zea mays) = assay: Test A postemergence; conditions: postemergence; for Corn plant response rating: 125 g ai/ha, visual injury rating on 0 to 100 scale (0 no effect, 100 complete control), approx. 10 d; for Plant response rating, Corn: 500 g ai/ha, 0 to 100 scale, 0 no effect, 100 complete control
Procedure, shortened: (§1)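 Seeded soil received test chemicals as a preemergence directed spray, and seedlings at one to two leaves, 2–10 cm tall, received them postemergence, in a non-phytotoxic, surfactant-containing solvent mixture. Pots were held in a greenhouse for approximately 10 d, then rated for injury from 0, no effect, to 100, complete control.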

[1] = test system: giant foxtail (Setaria faberii); assay: Test A postemergence; conditions: postemergence; for Foxtail, Giant plant response rating: 125 g ai/ha, visual injury rating on 0 to 100 scale (0 no effect, 100 complete control), approx. 10 d; for Plant response rating, Foxtail, Giant: 500 g ai/ha, 0 to 100 scale, 0 no effect, 100 complete control
Procedure, shortened: as §1

[2] = test system: ryegrass, Italian (Italian ryegrass, Lolium multiflorum); assay: Test A postemergence; conditions: postemergence; for Ryegrass, Italian plant response rating: 125 g ai/ha, visual injury rating on 0 to 100 scale (0 no effect, 100 complete control), approx. 10 d; for Plant response rating, Ryegrass, Italian: 500 g ai/ha, 0 to 100 scale, 0 no effect, 100 complete control
Procedure, shortened: as §1

[3] = test system: Galium (catchweed bedstraw, Galium aparine); assay: Test A postemergence; conditions: postemergence; for Galium plant response rating: 125 g ai/ha, visual injury rating on 0 to 100 scale (0 no effect, 100 complete control), approx. 10 d; for Plant response rating, Galium: 500 g ai/ha, 0 to 100 scale, 0 no effect, 100 complete control
Procedure, shortened: as §1

[4] = test system: barnyardgrass (Echinochloa crus-galli); assay: Test A postemergence
Procedure, shortened: as §1

[5] = test system: ragweed (common ragweed, Ambrosia elatior); assay: Test A postemergence; conditions: postemergence; for Ragweed plant response rating: 125 g ai/ha, visual injury rating on 0 to 100 scale (0 no effect, 100 complete control), approx. 10 d; for Plant response rating, Ragweed: 500 g ai/ha, 0 to 100 scale, 0 no effect, 100 complete control
Procedure, shortened: as §1

Kochia (Kochia scoparia) [6] = assay: Test A postemergence; conditions: postemergence; for Kochia plant response rating: 125 g ai/ha, visual injury rating on 0 to 100 scale (0 no effect, 100 complete control), approx. 10 d; for Plant response rating, Kochia: 500 g ai/ha, 0 to 100 scale, 0 no effect, 100 complete control
Procedure, shortened: as §1

[7] = test system: wheat (Triticum aestivum); assay: Test A postemergence; conditions: postemergence; for Wheat plant response rating: 125 g ai/ha, visual injury rating on 0 to 100 scale (0 no effect, 100 complete control), approx. 10 d; for Plant response rating, Wheat: 500 g ai/ha, 0 to 100 scale, 0 no effect, 100 complete control
Procedure, shortened: as §1

[8] = test system: blackgrass (Alopecurus myosuroides); assay: Test A postemergence
Procedure, shortened: as §1

[9] = test system: pigweed (Amaranthus retroflexus); assay: Test A postemergence; conditions: postemergence; for Pigweed plant response rating: 125 g ai/ha, visual injury rating on 0 to 100 scale (0 no effect, 100 complete control), approx. 10 d; for Plant response rating, Pigweed: 500 g ai/ha, 0 to 100 scale, 0 no effect, 100 complete control
Procedure, shortened: as §1

soybean (Glycine max) = assay: Test C preemergence; conditions: scale 0 to 100, 0 no effect, 100 complete control
Description: Seeds of plant species selected from blackgrass (Alopecurus myosuroides), ryegrass, Italian (Italian ryegrass, Lolium multiflorum), wheat (winter wheat, Triticum aestivum), Galium (catchweed bedstraw, Galium aparine), corn (Zea mays), crabgrass, large (large crabgrass, Digitaria sanguinalis), foxtail, giant (giant foxtail, Setaria faberii), johnsongrass (Sorghum halepense), lambsquarters (Chenopodium album), morningglory (Ipomoea coccinea), nutsedge, yellow (yellow nutsedge, Cyperus esculentus), pigweed (Amaranthus retroflexus), ragweed (common ragweed, Ambrosia elatior), soybean (Glycine max), barnyardgrass (Echinochloa crus-galli), oilseed rape (Brassica napus), waterhemp (common waterhemp, Amaranthus rudis) and velvetleaf (Abutilon theophrasti) were planted into a blend of loam soil and sand and treated preemergence with test chemicals formulated in a non-phytotoxic solvent mixture which included a surfactant.
At the same time, plants selected from these crop and weed species and also Kochia (Kochia scoparia), oat, wild (wild oat, Avena fatua), and chickweed (common chickweed, Stellaria media) were planted in pots containing Sunshine Redi-Earth® planting medium comprising spaghnum peat moss, vermiculite, starter nutrients and dolomitic limestone and treated with postemergence applications of test chemicals formulated in the same manner. Plants ranged in height from 2 to 18 cm (1- to 4-leaf stage) for postemergence treatments. Treated plants and controls were maintained in a greenhouse for 13 to 15 d, after which time all species were compared to controls and visually evaluated. Plant response ratings, summarized in Table C, are based on a scale of 0 to 100 where 0 is no effect and 100 is complete control. A dash (-) response means no test result.

[10] = test system: giant foxtail (Setaria faberii); assay: Test A preemergence; conditions: for Plant response rating, Foxtail, Giant: 125 g ai/ha, preemergence, 0 to 100 scale (0 no effect, 100 complete control)
Procedure, shortened: as §1

[11] = test system: ryegrass, Italian (Italian ryegrass, Lolium multiflorum); assay: Test A preemergence; conditions: for Plant response rating, Ryegrass, Italian: 125 g ai/ha, preemergence, 0 to 100 scale (0 no effect, 100 complete control)
Procedure, shortened: as §1

[12] = test system: barnyardgrass (Echinochloa crus-galli); assay: Test A preemergence; conditions: for Plant response rating, Barnyardgrass: 125 g ai/ha, preemergence, 0 to 100 scale (0 no effect, 100 complete control)
Procedure, shortened: as §1

[13] = test system: ragweed (common ragweed, Ambrosia elatior); assay: Test A preemergence; conditions: for Plant response rating, Ragweed: 125 g ai/ha, preemergence, 0 to 100 scale (0 no effect, 100 complete control)
Procedure, shortened: as §1

Kochia (Kochia scoparia) [14] = assay: Test A preemergence; conditions: for Plant response rating, Kochia: 125 g ai/ha, preemergence, 0 to 100 scale (0 no effect, 100 complete control)
Procedure, shortened: as §1

[15] = test system: pigweed (Amaranthus retroflexus); assay: Test A preemergence; conditions: for Plant response rating, Pigweed: 125 g ai/ha, preemergence, 0 to 100 scale (0 no effect, 100 complete control)
[16] = test system: ducksalad (Heteranthera limosa); assay: Test B flooded paddy test; conditions: Flood, 250 g ai/ha; 0 to 100 scale where 0 is no effect and 100 is complete control; 13 to 15 d
Procedure, shortened: (§2)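 Greenhouse paddy pots with 2-leaf stage plants received compound by direct addition to floodwater 3 cm deep, kept at that level. Scored visually at 13–15 d versus controls (0 no effect; 100 complete control).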

rice (Oryra sativa) = assay: Test B flooded paddy test; conditions: Flood, 250 g ai/ha; 0 to 100 scale where 0 is no effect and 100 is complete control; 13 to 15 d
Procedure, shortened: as §2

[17] = test system: barnyardgrass (Echinochloa crus-galli); assay: Test B flooded paddy test; conditions: Flood, 250 g ai/ha; 0 to 100 scale where 0 is no effect and 100 is complete control; 13 to 15 d
Procedure, shortened: as §2

[18] = test system: sedge, umbrella (small-flower umbrella sedge, Cyperus difformis); assay: Test B flooded paddy test; conditions: Flood, 250 g ai/ha; 0 to 100 scale where 0 is no effect and 100 is complete control; 13 to 15 d
Procedure, shortened: as §2

[19] = 500 g ai/ha, postemergence, 0 to 100 scale, 0 no effect, 100 complete control
[20] = Postemergence, 125 g ai/ha, visual injury, 0 to 100 scale (0 no effect, 100 complete control), approx. 10 d
[21] = Preemergence, 500 g ai/ha, 0 is no effect, 100 is complete control
[22] = 125 g ai/ha, postemergence, visual injury rating on 0 to 100 scale (0 no effect, 100 complete control), approx. 10 d
[23] = Preemergence, 500 g ai/ha, visual injury approx. 10 d

CN1CC(c2cccc(OC(F)(F)C(F)F)c2)C(C(=O)Nc2ccc(F)cc2F)C1=O (centres unmarked) [Compound 393]
Corn plant response rating (corn (Zea mays)): 80
Plant response rating, Corn (corn (Zea mays)): 80
Foxtail, Giant plant response rating [1]: 90
Plant response rating, Foxtail, Giant [1]: 90
Ryegrass, Italian plant response rating [2]: 40
Plant response rating, Ryegrass, Italian [2]: 70
Galium plant response rating [3]: 70
Plant response rating, Galium [3]: 70
Plant response rating, Barnyardgrass [4, 19]: 90
Plant response rating, Barnyardgrass [4, 20]: 80
Ragweed plant response rating [5]: 0
Plant response rating, Ragweed [5]: 0
Kochia plant response rating (Kochia (Kochia scoparia) [6]): 60
Plant response rating, Kochia (Kochia (Kochia scoparia) [6]): 60
Wheat plant response rating [7]: 20
Plant response rating, Wheat [7]: 70
Plant response rating, Blackgrass [8, 19]: 70
Plant response rating, Blackgrass [8, 20]: 60
Pigweed plant response rating [9]: 50
Plant response rating, Pigweed [9]: 70
Plant response rating, Soybean (soybean (Glycine max); 62 g ai/ha): 10
Plant response rating, Soybean (soybean (Glycine max); 125 g ai/ha): 15
Plant response rating, Soybean (soybean (Glycine max); 250 g ai/ha): 30
Plant response rating, Foxtail, Giant [10]: 90
Foxtail, Giant plant response rating (0 to 100 scale) [10, 21]: 90
Plant response rating, Ryegrass, Italian [11]: 20
Ryegrass, Italian plant response rating (0 to 100 scale) [11, 21]: 50
Plant response rating, Barnyardgrass [12]: 90
Barnyardgrass plant response rating (0 to 100 scale) [12, 21]: 90
Plant response rating, Ragweed [13]: 0
Ragweed plant response rating (0 to 100 scale) [13, 21]: 70
Plant response rating, Kochia (Kochia (Kochia scoparia) [14]): 60
Kochia plant response rating (0 to 100 scale) (Kochia (Kochia scoparia) [14]; [21]): 50
Plant response rating, Pigweed [15]: 50
Pigweed plant response rating (0 to 100 scale) [15, 21]: 70
Plant response rating, Ducksalad [16]: 90
Plant response rating, Rice (rice (Oryra sativa)): 0
Plant response rating, Barnyardgrass [17]: 65
Plant response rating, Sedge, Umbrella [18]: 0

CN1CC(c2cccc(C(F)(F)F)c2)C(C)(C(=O)Nc2ccccc2F)C1=O (centres unmarked) [Compound 428]
Corn plant response rating (corn (Zea mays)): 30
Plant response rating, Corn (corn (Zea mays)): 60
Foxtail, Giant plant response rating [1]: 80
Plant response rating, Foxtail, Giant [1]: 90
Ryegrass, Italian plant response rating [2]: 30
Plant response rating, Ryegrass, Italian [2]: 30
Galium plant response rating [3]: 50
Plant response rating, Galium [3]: 60
Barnyardgrass plant response rating [4, 22]: 90
Plant response rating, Barnyardgrass [4, 19]: 90
Ragweed plant response rating [5]: 0
Plant response rating, Ragweed [5]: 0
Kochia plant response rating (Kochia (Kochia scoparia) [6]): 30
Plant response rating, Kochia (Kochia (Kochia scoparia) [6]): 70
Wheat plant response rating [7]: 30
Plant response rating, Wheat [7]: 60
Blackgrass plant response rating [8, 22]: 40
Plant response rating, Blackgrass [8, 19]: 70
Pigweed plant response rating [9]: 0
Plant response rating, Pigweed [9]: 20
Plant response rating, Soybean (soybean (Glycine max); 62 g ai/ha): 0
Plant response rating, Soybean (soybean (Glycine max); 125 g ai/ha): 0
Plant response rating, Soybean (soybean (Glycine max); 250 g ai/ha): 15
Plant response rating, Foxtail, Giant [10]: 90
Foxtail, Giant plant response rating (0 to 100 scale, 0 is no effect, 100 is complete control) [10, 23]: 90
Plant response rating, Ryegrass, Italian [11]: 20
Ryegrass, Italian plant response rating (0 to 100 scale, 0 is no effect, 100 is complete control) [11, 23]: 30
Plant response rating, Barnyardgrass [12]: 90
Barnyardgrass plant response rating (0 to 100 scale, 0 is no effect, 100 is complete control) [12, 23]: 90
Plant response rating, Ragweed [13]: 0
Ragweed plant response rating (0 to 100 scale, 0 is no effect, 100 is complete control) [13, 23]: 0
Plant response rating, Kochia (Kochia (Kochia scoparia) [14]): 50
Kochia plant response rating (0 to 100 scale, 0 is no effect, 100 is complete control) (Kochia (Kochia scoparia) [14]; [23]): 50
Plant response rating, Pigweed [15]: 0
Pigweed plant response rating (0 to 100 scale, 0 is no effect, 100 is complete control) [15, 23]: 20
